This test concerns the target unphosphorylated-BTK kinase domain (UP-BTK), GST-tagged human BTK (389-659aa) (Homo sapiens (Human), UniProt Q06187). Nature of the test: BTK kinase Lanthascreen binding assay. The settings on record: Lanthascreen tracer competition, 60 minutes incubation, pIC50 = negative log of the IC50 in molar. The procedure, abridged:
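Values are pIC50, i.e. negative log of IC50 in molar, derived from concentration–response fitting. Each compound competes with a fluorescently labelled tracer for the unphosphorylated kinase domain.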

Sequence of unphosphorylated-BTK kinase domain (UP-BTK), GST-tagged human BTK (389-659aa) (Q06187 389-659): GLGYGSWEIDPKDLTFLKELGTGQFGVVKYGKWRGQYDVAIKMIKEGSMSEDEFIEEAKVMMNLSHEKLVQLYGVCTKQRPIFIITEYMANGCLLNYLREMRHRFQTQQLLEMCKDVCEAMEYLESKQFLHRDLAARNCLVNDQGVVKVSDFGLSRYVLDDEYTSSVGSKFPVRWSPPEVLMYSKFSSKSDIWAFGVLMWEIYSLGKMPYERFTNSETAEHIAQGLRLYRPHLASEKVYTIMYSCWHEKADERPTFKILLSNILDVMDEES

As to `C=CC(=O)N1CCCC(C(=O)Nc2sc3nccc4c3c2NC(=O)N4c2ccc(Oc3ccccc3)cc2C)C1` (centres unmarked) [Example 788, 1-Acryloyl-N-(5-(2-methyl-4-phenoxyphenyl)-4-oxo-4,5-dihydro-3H-1-thia-3,5,8-triazaacenaphthylen-2-yl)piperidine-3-carboxamide], for the setting “read-out: BTK_I_binding pIC50 (converted)”, the IC50 is 0.2 µM.
With `C=CC(=O)N1CC[C@@H](NC(=O)c2sc3nccc4c3c2NC(=O)N4c2ccc(Oc3cccnn3)cc2C)C1` [Example 790, (R)—N-(1-Acryloylpyrrolidin-3-yl)-5-(2-methyl-4-(pyridazin-3-yloxy)phenyl)-4-oxo-4,5-dihydro-3H-1-thia-3,5,8-triazaacenaphthylene-2-carboxamide], the “BTK_I_binding pIC50” value is on record as 6.7.
For `C=CC(=O)N1CCC[C@@H](NC(=O)c2sc3nccc4c3c2NC(=O)N4c2ccc(Oc3cccnn3)cc2)C1` [Example 791, (R)—N-(1-Acryloylpiperidin-3-yl)-4-oxo-5-(4-(pyridazin-3-yloxy)phenyl)-4,5-dihydro-3H-1-thia-3,5,8-triazaacenaphthylene-2-carboxamide], the “BTK_I_binding pIC50” value amounted to 6.6.
Consider `C=CC(=O)N1CCC[C@H](NC(=O)c2sc3nccc4c3c2NC(=O)N4c2ccc(Oc3ccccc3)cn2)C1` [Example 795, (S)—N-(1-Acryloylpiperidin-3-yl)-4-oxo-5-(5-phenoxypyridin-2-yl)-4,5-dihydro-3H-1-thia-3,5,8-triazaacenaphthylene-2-carboxamide], for which the “BTK_I_binding pIC50” value is 6.4.
Regarding `C=CC(=O)N1CCN(c2sc3nccc4c3c2NC(=O)N4c2ccc(Oc3ccccc3)cc2C)CC1` [Example 796, 2-(4-Acryloylpiperazin-1-yl)-5-(2-methyl-4-phenoxyphenyl)-3H-1-thia-3,5,8-triazaacenaphthylen-4(5H)-one], the “BTK_I_binding pIC50” value turned out to be 6.3.
On to `CCC(=O)N1CCC[C@@H](NC(=O)c2sc3nccc4c3c2NC(=O)N4c2ccc(Oc3ccccn3)cc2C)C1` [Example 799, (R)-5-(2-Methyl-4-(pyridin-2-yloxy)phenyl)-4-oxo-N-(1-propionylpiperidin-3-yl)-4,5-dihydro-3H-1-thia-3,5,8-triazaacenaphthylene-2-carboxamide], for which the “BTK_I_binding pIC50” value stood at 6.2.
On the same count and under the same terms, the result for `CC(=O)N1CCC[C@@H](NC(=O)c2sc3nccc4c3c2NC(=O)N4c2ccc(Oc3ccccn3)cc2C)C1` [Example 800, (R)—N-(1-Acetylpiperidin-3-yl)-5-(2-methyl-4-(pyridin-2-yloxy)phenyl)-4-oxo-4,5-dihydro-3H-1-thia-3,5,8-triazaacenaphthylene-2-carboxamide] reads 6.2; that for `Cc1cc(Oc2ccccc2)ccc1N1C(=O)Nc2c(NC(=O)C3CCCN(C(=O)/C(C#N)=C/C4CC4)C3)sc3nccc1c23` (centres unmarked) [Example 801, (E)-1-(2-Cyano-3-cyclopropylacryloyl)-N-(5-(2-methyl-4-phenoxyphenyl)-4-oxo-4,5-dihydro-3H-1-thia-3,5,8-triazaacenaphthylen-2-yl)piperidine-3-carboxamide], 6.2; that for `Cc1cc(Oc2ccccc2)ccc1N1C(=O)Nc2c(NC(=O)C3CCCN(C#N)C3)sc3nccc1c23` (centres unmarked) [Example 802, 1-Cyano-N-(5-(2-methyl-4-phenoxyphenyl)-4-oxo-4,5-dihydro-3H-1-thia-3,5,8-triazaacenaphthylen-2-yl)piperidine-3-carboxamide], 6.1.
The same measure, in the same setting: under `C=CC(=O)N1CC[C@@H](NC(=O)c2sc3nccc4c3c2NC(=O)N4c2ccc(Oc3cccnn3)cc2)C1` [Example 803, (R)—N-(1-Acryloylpyrrolidin-3-yl)-4-oxo-5-(4-(pyridazin-3-yloxy)phenyl)-4,5-dihydro-3H-1-thia-3,5,8-triazaacenaphthylene-2-carboxamide] stands 6.1; under `CCC(=O)N1CCC(C(=O)Nc2sc3nccc4c3c2NC(=O)N4c2ccc(Oc3ccccc3)cc2C)CC1` [Example 805, N-(5-(2-Methyl-4-phenoxyphenyl)-4-oxo-4,5-dihydro-3H-1-thia-3,5,8-triazaacenaphthylen-2-yl)-1-propionylpiperidine-4-carboxamide], 6.0.

The values above are taken from patent US10800792B2, “Inhibitors of Bruton's tyrosine kinase and method of their use” (JANSSEN PHARMACEUTICA NV, priority 2015, dated 2020).
